Test results as given in patent US11504394B2, “Targeted ionophore-based metal delivery” (The Regents of the University of California, priority 2018, dated 2022).

What was measured:
labile Cu^+ pool = experiment: In vivo bioluminescence imaging with CCL-1 / D-Luc, liver region; set-up: species or system FVB-luc^+ mice; conditions: 24 hours after ionophore, 0.75 mg Cu/kg i.p.
Method: A Xenogen IVIS Spectrum instrument (Caliper Life Sciences) was used for bioluminescence imaging in all animal experiments, and image analysis was performed using the Living Image software. The total photon flux for each animal was determined by drawing a region of interest around the liver and integrating photon flux over the total imaging period (area under the curve). We selected our liver region of interest based on comparing the bioluminescence data in vivo and ex vivo, as described in our previous studies with the CCL-1 probe.^27 The same region of interest around the liver was applied to analyzing both the CCL-1 and D-Luc data. The data plotted in FIG. 8A represents the ratio of CCL-1 integrated photon flux to basal D-luc integrated photon flux. Mice were anesthetized prior to injection and during imaging via inhalation of isoflurane. Isoflurane was purchased from Phoenix Pharmaceuticals, Inc. DMSO was purchased from Sigma-Aldrich, Dulbecco's phosphate buffered saline was purchased from Gibco, and medical-grade oxygen was purchased from Praxair.
FVB-luc+ mice were given intraperitoneal (i.p.) injections of vehicle (50 μL 1:1 DMSO:DPBS), 3.46 mg/kg Cu(gtsm), or 7.26 mg/kg Gal-Cu(gtsm) under anesthesia with isoflurane. The ionophore concentrations were chosen to give an equivalent copper dose of 0.75 mg Cu/kg mouse at 0.6 mg Cu/mL vehicle. […]

[1] = tested on: HepG2 (ASGPR-expressing) cells; experiment: Cellular copper delivery by ICP-MS, HepG2; format: cell-based
Method: Cells were maintained by the UC Berkeley Tissue Culture Facility. HEK 293T and HepG2 cells were maintained as a monolayer in exponential growth at 37° C. in a 5% CO2 atmosphere. HEK 293T cells were maintained in Dulbecco's Modified Eagle Medium (DMEM, Gibco) supplemented with 10% fetal bovine serum (FBS, Hyclone), and glutamax (Gibco). HepG2 cells were maintained in low glucose DMEM with L-glutamine and sodium pyruvate (Gibco). One day before ionophore treatment, cells were passaged and plated in DMEM with glutamax supplemented with 10% FBS on either poly D-lysine-coated (HEK 293T) or gelatin-coated (HepG2) sterile 6-well Corning polystyrene plates. Cells were grown to 60 to 80% confluency prior to ionophore treatment.
Cells were washed twice with serum-free DMEM. 2 mM stock solutions of Cu(gtsm) or Gal-Cu(gtsm) were diluted in serum-free DMEM to a final ionophore concentration of 4 μM. 2 mL of vehicle (0.2% DMSO in DMEM), 4 μM Cu(gtsm), or 4 μM Gal-Cu(gtsm) were then added to the 6-well plates and incubated for three hours. For the galactose competition experiment, cells were washed twice with serum-free DMEM, then incubated with 2 mL serum-free DMEM either with or without 1 M D-galactose (Sigma Aldrich) for 15 minutes. 4 μL of DMSO, 2 mM Cu(gtsm), or 10 mM Gal-Cu(gtsm) was diluted with 300 μL of cell media, which was then mixed back into each well. Cells were then incubated for one hour. Cells were then rinsed twice with ice-cold EDTA (1 mM in 50 mM HEPES buffer, pH=7.4) to remove cell surface-bound copper and rinsed twice with ice-cold 50 mM HEPES buffer (pH=7.4), followed by the addition of 215 μL concentrated nitric acid (BDH Aristar Ultra). The plates were sealed with Parafilm and incubated on a shaker overnight. Samples (150 μL) were further diluted in 2 mL 2% nitric acid (made freshly from concentrated nitric acid and Milli-Q water) in 15 mL tubes (Sarstedt) and analyzed on a Thermo Fisher iCAP Qc ICP mass spectrometer in kinetic energy discrimination (KED) mode against a standard curve of known copper and phosphorus concentrations (CMS-5, Inorganic Ventures), with Ga (20 μg/L, Inorganic Ventures) as an internal standard. Each experiment was carried out twice and each condition was repeated in at least triplicate.

SOD = SOD assay in high fat diet mice; format: in vivo; conditions: vs untreated HFD mice
[2] = tested on: mouse model for non-alcoholic fatty liver disease; experiment: High fat diet mouse model for non-alcoholic fatty liver disease; format: in vivo, mice
Method: The potential of Gal-Cu(gtsm) in the treatment of non-alcoholic fatty liver disease (NFALD) was assessed in a mouse model. Mice were subjected to a high fat diet.

liver tissue = experiment: Liver tissue histology, H&E staining; format: in vivo
Method: FVB-luc+ mice were injected i.p. with vehicle (50 μL 1:1 DMSO:DPBS), Cu(gtsm), or Gal-Cu(gtsm) at a 0.75 mg Cu/kg mouse dose. After six hours, mice were euthanized with CO2 asphyxiation followed by cervical dislocation and liver tissue was extracted. Liver sections were fixed in a 10% formalin in PBS solution and sent to Histowiz Inc. (Brooklyn, N.Y.) for further processing and hematoxylin & eosin staining.

ATP7B Cu export protein = experiment: Western blot ATP7B in high fat diet mice; format: in vivo
[3] = Log P, shake-flask octanol-water partition; format: physicochemical; conditions: n-octanol / PBS (pH=7.4), error = standard deviation
Method: Log P measurements were performed with The shake-flask method based on compound partitioning between n-octanol and PBS (pH=7.4) layers. Octanol (saturated with PBS) and PBS (saturated with octanol) was obtained by vigorous mixing for one hour followed by layer separation in a separatory funnel over 24 hours. For Gal-Cu(gtsm): 500 μL of standard solutions were made with 100, 50, 20, 10, and 5 μM of Gal-Cu(gtsm) dissolved in PBS-saturated octanol. 50 mM stock solution in DMSO was diluted to 100 μM final concentration with 490/10, 480/20, and 460/40 μL of saturated octanol/PBS. For Cu(gtsm): 500 μL of standard solutions were made with 100, 50, 20, 10, and 5 μM of […]. 50 mM stock solution in DMSO was diluted to 100 μM final concentration with 10/490, […], and 50/450 μL of saturated octanol/PBS. All standards and samples were vortexed vigorously in 1.7 mL microcentrifuge tubes for 60 seconds, then spun down at 12,000 g for 2 mins in a microcentrifuge. 200 μL of each standard and sample were added to a clear 96-well plate, and the blank-subtracted absorbance at 470 nm was read in a Synergy M2 plate reader. All standards and samples were measured in duplicate. Log P values were calculated from the subsequent partition coefficients and averaged across the three partition conditions to obtain the final log P value. […]

Q: Which “bioluminescent CCL-1/D-luc liver signal” value (labile Cu^+ pool) does the source give for `CNC1=N[N+]2=CC=[N+]3N=C(NCCOCCOCCOC4OC(CO)C(O)C(O)C4NC(C)=O)[S][Cu-2]23[S]1` (centres unmarked) [Gal-Cu(gtsm)] here?
A: returns to basal levels

Q: And the “Cu increase relative to basal levels (^63Cu/^31P)” value ([1]; HepG2, 4 μM, three hours, serum-free DMEM)?
A: 4 fold

Q: What about the temperature dependent uptake ([1]; HepG2, 4° C. vs 37° C.) of the same compound?
A: much higher uptake at 37 °C than at 4 °C

Q: And the “Cu delivery in presence of D-galactose (competitive ASGPR ligand)” value ([1]; HepG2, D-galactose 1 M, one hour, Cu(gtsm) 4 μM, Gal-Cu(gtsm) 20 μM)?
A: significantly attenuated

Q: And the “dose response of cellular copper content” value ([1]; HepG2, ICP-MS total copper)?
A: robust dose-dependent copper delivery response

Q: What about the “SOD assay, anti-oxidant activity” value (SOD) of the same compound?
A: improved anti-oxidant activity

Q: What about the “tissue copper content (ICP-MS)” value [2] of the same compound?
A: restores copper homeostasis

Q: And the glucose tolerance test ([2]; vs untreated HFD mice)?
A: improved metabolism

Q: What about the “liver steatosis and fattiness” value ([2]; vs untreated HFD mice) of the same compound?
A: significantly reduced

Q: And the “serum ALT assay” value ([2]; vs untreated HFD mice)?
A: rescued liver health

Q: And the “toxicity as indicated by liver histology and toxicity assays” value (liver tissue; 0.75 mg Cu/kg i.p.)?
A: non-toxic

Q: And the “H&E liver histology” value (liver tissue; 6 hours, 0.75 mg Cu/kg mouse)?
A: largely resemble those of the vehicle-treated control mice

Q: And the ATP7B expression (ATP7B Cu export protein)?
A: reduced expression

Q: And the “log P” value [3]?
A: −1.03±0.10
